Experimental data published in PubChem BioAssay (NCI).
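Dose response: 5 concentrations. Exposure: 48 h. Format: 96-well plates. Endpoint: linear interpolation; highest concentration if not reached. GI50 = concentration required for 50% inhibition of growth. TGI marks complete inhibition of growth.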

Key:
Experiment in all cases: NCI anticancer screen, dose series, 48 h
XF 498 CNS = system: XF 498 CNS
M19-MEL melanoma = system: M19-MEL melanoma
SNB-78 CNS = system: SNB-78 CNS
HOP-18 NSCLC = system: HOP-18 NSCLC
DMS 273 small cell lung = system: DMS 273 small cell lung
DLD-1 colon = system: DLD-1 colon
RXF-631 renal = system: RXF-631 renal

SMILES	TGI (XF 498 CNS) [µM]	TGI (M19-MEL melanoma) [µM]	TGI (SNB-78 CNS) [µM]	TGI (HOP-18 NSCLC) [µM]	TGI (DMS 273 small cell lung) [µM]	TGI (DLD-1 colon) [µM]	TGI (RXF-631 renal) [µM]	GI50 (SNB-78 CNS) [µM]	GI50 (DLD-1 colon) [µM]
CC(=O)OCCOCNC(=S)N/N=C/c1ccc([N+](=O)[O-])s1	> 100	34.1	> 100	> 100	85.2	> 100			
CC(=O)O[C@]12CCCCCC1C1(O)C(O)CCCCC12 (stereo partly drawn)	> 100	> 100	> 100		> 100				
Nc1c(S(=O)(=O)c2ccccc2)c2nc3ccccc3nc2n2c1nc1ccccc12	> 44.5	> 100	> 62.1		> 71.9	> 100	47.5		
C[n+]1c2ccccc2c(NC(CCCN=C(N)N)C(=O)O)c2ccccc21 (stereo not drawn)	> 100	> 100	> 100	> 100	> 100	> 100			
Cc1ccc(C(=O)NCc2ccccc2)cc1N=NN(C)C		> 100	> 100		> 100	> 100			
CCOC(=O)CCC(NC(=O)c1ccc(NCc2ccc3nc(-c4ccccc4)c(Cl)nc3c2)cc1)C(=O)OCC (stereo not drawn)	20.4	43.2	> 100		> 100	> 100	70.3		
CCCCCCCCCCCC(=O)OC[C@@H](C[As](=O)(O)O)OC(=O)CCCCCCCCCCC	29	19.4		27.7	12.3	33.3			
Cc1ccc(NC(=O)C(=O)C2C(=O)NC(=O)NC2=O)cc1C	> 100	> 100	> 100	> 100	> 100	> 100			
O=C1c2ccccc2C(=O)N1C/C=N/NS(=O)(=O)c1ccc(Br)cc1	> 100	> 100	> 100	> 100	> 100	> 100	> 100		
CC(=O)O[C@@]12CO[C@@H]1CC(O)[C@@]1(C)C(=O)[C@H](O)C3=C(C)C(O)C[C@@](O)(C(OC(=O)c4ccccc4)C12)C3(C)C (stereo partly drawn)	> 100	> 100	> 100						
CCCC(=O)[O-].CCCC(=O)[O-].NCCN.NCCN.[Co+3].[O-][Cl+3]([O-])([O-])[O-]			> 100			> 100		> 100	> 100
CSc1ccc2c(cc1=O)[C@@H](NC(=O)c1cc(O)c(O)c(O)c1)CCc1cc(O)c(O)c(O)c1-2	39.4	29.9	91.8		39.9	55.7	30.4		
